Results: patent US20170183306A1, “CYCLIC COMPOUNDS HAVING A 1,3 DIAMINO-FUNCTIONALITY FOR USE IN THE TREATMENT OF HIV INFECTION” (Universite Paris Descartes, priority 2014, published 2017)
Where a name gives a salt, the structure may show the parent alone.

Tests used:
Format in all cases: cell-based
[1] = tested on: wild type NL4-3 virus (HIV-1) in HeLa-p4 cells; experiment: HeLa-p4 single-cycle HIV-1 infectivity, beta-galactosidase CPRG test; conditions: Human immunodeficiency virus 1, NL43, HeLaP4, 48 hours after infection, control = NL4-3 virus alone; for activity at 50 µM: read-out: Hela-p4 CPRG 50 μM; for activity at 100 µM: read-out: Hela-p4 CPRG 100 μM
Procedure: (§1) HeLa-p4 cells are HeLa CD4 LTR-LacZ wherein LacZ expression is induced by the trans-activating protein Tat of HIV, making possible the precise quantification of HIV-1 infectivity from a single replication cycle. HeLa-CD4 cells growing exponentially at a density of 1×10^4/mL were placed in 96-well plates and infected the following day with 1 ng of HIV p24 antigen in the presence of different concentrations of compounds. The titles for a single cycle of the viruses were determined 48 hours after infection by quantifying the beta-galactosidase activity in lysates P4 by colorimetric test (CPRG, Promega) based on the cleavage of chlorophenol red-beta-D-galactopyranoside (CPRG) by beta-galactosidase. A cell viability assay measuring the absorbance at […] using the yellow tetrazolium reagent MTS [[…]] (Promega) was carried out.
(§2) For the helap4 cells experiments, the efficacy of the compounds is determined in comparison with control cells containing wild type NL4-3 virus alone (i.e. without any added compound) and is expressed as percentage of control. Then, the viral replication was increased for several compounds at the 50 and 100 μM concentrations with an absence of cytotoxic effects at the same concentrations (MTS test) (table 1).

[2] = tested on: J-Lat cells; experiment: J-Lat cells, percentage of GFP-positive cells by cytometry; conditions: 24 h, compound alone
Procedure: The J-Lat were grown in RPMI 1640 medium (Gibco-BRL) supplemented with 10% fetal bovine serum, 50 U/ml of penicillin, […] of streptomycin at 37 uC in a humidified 95% air/5% CO2 atmosphere. The cells were plated at 5.105 cells in a 96 well-plate. TNF ? was purchased from Immunosource. SAHA (suberoylanilide hydroxamic acid), prostratin (12-deoxyphorbol-13-acetate) and vorinostat were obtained from Sigma-Aldrich. The J-Lat cells were treated for 24 h with the different compounds alone. The cells were washed twice in PBS, re-suspended in PBS containing 4% paraformaldehyde and fixed for 30 min. Cells were next washed and re-suspended in PBS. The percentage of GFP-positive cells was measured with a LSRFortessa cytometer (Becton-Dickinson) using FACSDiva Version 6.1.3 according to the manufacturer's instructions.
The results for the J-Lat cells experiments are expressed as a percentage of the living fluorescent cells. In this model, some slight increase of viral production measured by fluorescence are quantified (table 1).

[3] = tested on: HeLa-p4 cells; experiment: Cell viability assay (MTS) on HeLa-p4 cells; conditions: cell viability
Procedure: as §1, §2

SMILES | activity at 50 µM [1] [%] | activity at 100 µM [1] [%] | J-lat 50 μM [2] | J-lat 100 μM [2] | Hela-p4 MTS 50 μM [3] | Hela-p4 MTS 100 μM [3] | activity at 200 µM [1] [%] | Hela-p4 MTS 200 μM [3]
N[C@@H]1C[C@H](N)CN(c2ccc3c(c2)OCO3)C1 [ECO01-042-C] | 146 | 104 | 0.2 percentage of the living fluorescent cells | 0.4 percentage of the living fluorescent cells | 85 | 60 |  | 
N[C@@H]1C[C@H](N)CN(c2ccccc2)C1 [ECO01-037-C, 1-phenylpiperidine-3,5-diamine] | 103 | 103 | 0.6 percentage of the living fluorescent cells | 0.2 percentage of the living fluorescent cells | 97 | 106 |  | 
N[C@@H]1C[C@H](N)CN(CCc2ccc(O)cc2)C1 [ECO02-028-C, 4-(2-(3,5-diaminopiperidin-1-yl)ethyl)phenol] | 107 | 89 | 0.3 percentage of the living fluorescent cells | 0.2 percentage of the living fluorescent cells | 100 | 83 |  | 
N[C@@H]1C[C@H](N)CN(c2ccc(NC(=O)c3ccccc3)cc2)C1 [ECO03-002-C, N-(4-(3,5-diaminopiperidin-1-yl)phenyl)benzamide] | 120 | 165 | 0.5 percentage of the living fluorescent cells |  | 115 | 116 | 317 | 74
CC(C)(C)OC(=O)N[C@@H]1C[C@H](NC(=O)OC(C)(C)C)CN(Cc2ccc(N3CCCC3)cc2)C1 [ECO02-059-C, di-tert-butyl (1-(4-(pyrrolidin-1-yl)benzyl)piperidine-3,5-diyl)dicarbamate] | 198 | 177 | 0.5 percentage of the living fluorescent cells |  | 95 | 67 |  | 
COc1ccc(CC(=O)N2C[C@H](N)C[C@H](N)C2)cc1OC [AB287-F1, 1-((3S,5R)-3,5-diaminopiperidin-1-yl)-2-(3,4-dimethoxyphenyl)ethanone] | 137 | 182 | 0.1 percentage of the living fluorescent cells | 0.4 percentage of the living fluorescent cells | 103 | 92 |  | 
N[C@@H]1C[C@H](N)CN(CCCCc2ccccc2)C1 [ECO02-026-C, 1-(4-phenylbutyl)piperidine-3,5-diamine] | 30 | 31 | 65.0 percentage of the living fluorescent cells |  | 26 | 26 |  | 
COc1ccc(N2C[C@H](N)C[C@H](N)C2)cc1 [ECO01-056-C, 1-(4-methoxyphenyl)piperidine-3,5-diamine] | 94 | 122 | 0.1 percentage of the living fluorescent cells | 0.2 percentage of the living fluorescent cells | 68 | 81 |  | 
COC(=O)[C@@H](Cc1ccccc1)N1C[C@H](N)C[C@H](N)C1 [AB-109 F3, (R)-methyl 2-((3S,5R)-3,5-diaminopiperidin-1-yl)-3-phenylpropanoate] | 164 | 153 | 0.1 percentage of the living fluorescent cells | 4.9 percentage of the living fluorescent cells | 110 | 95 | 289 | 75
Cc1ccccc1CCN1C[C@H](N)C[C@H](N)C1 [ECO01-028-C, 1-(2-methylphenethyl)piperidine-3,5-diamine] | 108 | 113 | 0.1 percentage of the living fluorescent cells | 0 percentage of the living fluorescent cells | 91 | 94 |  | 
CC(C)(C)OC(=O)N[C@@H]1C[C@H](NC(=O)OC(C)(C)C)CN(Cc2ccco2)C1 [ECO02-058-C, di-tert-butyl (1-(furan-2-ylmethyl)piperidine-3,5-diyl)dicarbamate] | 110 | 159 | 1.4 percentage of the living fluorescent cells |  | 105 | 88 | 194 | 87
N[C@@H]1C[C@H](N)CN(Cc2ccccc2)C1 [ECO02-063-C, 1-benzylpiperidine-3,5-diamine trihydrochloride] | 85 | 107 | 2.9 percentage of the living fluorescent cells |  | 108 | 112 | 193 | 81
N[C@@H]1C[C@H](N)CN(Cc2ccco2)C1 [ECO02-065-C] | 108 | 125 | 0.5 percentage of the living fluorescent cells |  | 91 | 88 | 205 | 68
COC(=O)[C@H](Cc1ccccc1)N1C[C@H](N)C[C@H](N)C1 [AB-81, (S)-methyl 2-((3S,5R)-3,5-diaminopiperidin-1-yl)-3-phenylpropanoate] | 151 | 147 | 0.1 percentage of the living fluorescent cells | 0.8 percentage of the living fluorescent cells | 96 | 94 |  | 
COc1ccc(CN2C[C@H](N)C[C@H](N)C2)cc1 [AB-378, (3S,5R)-1-(4-methoxybenzyl)piperidine-3,5-diamine] | 169 | 199 | 0.2 percentage of the living fluorescent cells | 1.7 percentage of the living fluorescent cells | 98 | 94 | 312 | 72
COc1ccc2c(CN3C[C@H](NC(=O)OC(C)(C)C)C[C@H](NC(=O)OC(C)(C)C)C3)cn(C)c2c1 [ECO02-060-C, di-tert-butyl (1-((6-methoxy-1-methyl-1H-indol-3-yl)methyl)piperidine-3,5-diyl)dicarbamate] | 178 | 221 | 0.6 percentage of the living fluorescent cells |  | 69 | 54 | 217 | 43
CN(C)c1ccc(CN2C[C@H](NC(=O)OC(C)(C)C)C[C@H](NC(=O)OC(C)(C)C)C2)cc1 [ECO02-062-C] | 239 | 269 | 0.7 percentage of the living fluorescent cells |  | 91 | 84 | 401 | 73
CCc1ccc(C(=O)NC(CCCCN)C(=O)N2C[C@H](N)C[C@H](N)C2)cc1 (stereo partly drawn) [AB289-2, N-(6-amino-1-(3,5-diaminopiperidin-1-yl)-1-oxohexan-2-yl)-4-ethylbenzamide] | 154 | 219 | 0.1 percentage of the living fluorescent cells | 0.2 percentage of the living fluorescent cells | 113 | 101 | 248 | 72
N[C@@H]1C[C@H](N)CN(c2ccc(C(=O)N3CCCCCC3)cc2)C1 [ECO02-007-C, azepan-1-yl(4-(3,5-diaminopiperidin-1-yl)phenyl)methanone] | 87 | 98 | 0.6 percentage of the living fluorescent cells |  | 97 | 98 |  | 
